In patent publication US4497812A, “2-Amino-5-aminomethyl-2-oxazolines, compositions and use” (Societe Cortial, S.A., priority 1982, dated 1985):
Like-named read-outs stand apart in the source and are kept apart here.

Key:
[1] = in vivo; details: mouse, mice, read-out: Percentage of mortality
Method: The toxicity was determined in mice for various ways of administraion.

[2] = system: right auricle of a guinea pig beating spontaneously; experiment: antihistaminic activity antiH2 in vitro, histamine-induced chronotropic effect; format: cell-based; details: for intrinsic chronotropic effect / inhibition at 100 µg/mL: 100 microg/ml
Method: Antihistaminic activity antiH2 was determined in vitro on the right auricle of a guinea pig beating spontaneously.

[3] = system: mice; experiment: hypocholesterolemic activity, regimen rich in cholesterol and cholic acid; format: in vivo; details: 400 mg/kg per os
Method: The hypocholesterolemic activity was determined in mice subjected to a regimen rich in cholesterol and cholic acid for 7 days. After administration per os of the production of Example 6 in a dose of 400 mg/kg, a 21% reduction of cholesterolemia was noted on the 6th and 7th days. This drop in cholesterolemia was accompanied by a 20% reduction of the […] fraction, the HDL/cholesterol ratio being equal to 1.01.

[4] = system: spontaneously hypertensive rat; experiment: spontaneously hypertensive rat, systolic pressure; format: in vivo; details: orally 100 mg/kg
Method: In the model of the spontaneously hypertensive rat, the product of Example 13, administered orally in a dose of 100 mg/kg, caused a drop in systolic pressure of 14 and 15% respectively after two and four hours. The product of Example 14, administered in a dose of 100 mg/kg under the same conditions, caused a reduction of 21% of the systolic pressure after six hours.

[5] = system: rats; experiment: antiallergic activity, cutaneous passive anaphylaxis test; format: in vivo
Method: The antiallergic activity was determined in rats in the cutaneous passive anaphylaxis test. The animals sensitized by an intradermic injection of IgE immediately received, after administration of the product to be tested, an intravenous injection of ovalbumin and Evans blue. The products of Examples 3 and 4 caused, at 10 mg/kg, 53 and 60% respectively inhibition of the Evans blue spot.

[6] = system: rats; experiment: diuretic activity, sodium excretion; format: in vivo; details: 20 mg/kg per os
Method: The diuretic activity was determined in rats subjected to a hydric regimen and evaluated by the ratio of sodium excreted in the treated animals to the sodium excreted in control animals. The products of Examples 3 and 7 multiplied the sodium excretion by 4.2 and 4.9 respectively at a dose of 20 mg/kg per os.

[7] = system: rats; experiment: carrageenan edema test; format: in vivo; details: 100 mg/kg per os, after 4 hours
Excerpt: The antiinflammatory activity was brought out in the carrageenan edema test in rats.

[8] = ulcerigenic effect; format: in vivo; details: 200 mg/kg per os
[9] = system: guinea pig ileum; experiment: antihistaminic activity antiH1 in vitro, contractions induced by histamine; format: cell-based; details: Cavia porcellus
Method: The antihistaminic activity antiH1 was determined in vitro on guinea pig ileum.

[10] = system: guinea pig ileum; experiment: contractions induced by serotinin in vitro; format: cell-based; details: Cavia porcellus; 25 microg/ml
[11] = system: rats; experiment: stress ulcer test; format: in vivo; details: 25 mg/kg per os
Excerpt: The antiulcerigenic activity was shown in the stress ulcer test.

[12] = system: right auricle of a guinea pig stimulated electrically; experiment: positive inotropic activity in vitro; format: cell-based; details: Cavia porcellus; 100 microg/ml; read-out: increase of the auricle contractile force
Method: The positive inotropic activity was determined in vitro on the right auricle of a guinea pig stimulated electrically.

[13] = ip, intraperitoneally 200 mg/kg
[14] = Cavia porcellus, 5 microg/ml of histamine
[15] = ip, intraperitoneally 100 mg/kg

Structure (SMILES): CCC1CCCCN1CC1CN=C(N)O1 (stereo not shown) [Example 6, 2-amino-5-(2-ethylpiperidinomethyl)-2-oxazoline]
- mortality [1, 13]: 0%
- mortality ([1]; po, orally 300 mg/kg): 0%
- intrinsic chronotropic effect [2]: without exhibiting intrinsic chronotropic effect
- inhibition at 100 µg/mL [2, 14]: > 50%
- HDL/cholesterol ratio [3]: 1.01
- reduction of the HDL-VLDL fraction [3]: 20%
- reduction of cholesterolemia ([3]; 6th and 7th days): 21%

Structure (SMILES): CN1CCN(CC2CN=C(N)O2)CC1 (stereo not shown) [Example 10, 2-amino-(4-methylpiperazinyl)-5-methyl-2-oxazoline]
- mortality [1, 13]: 0%
- mortality ([1]; po, orally 300 mg/kg): 0%

Structure (SMILES): CCCCN(C)CC1CN=C(N)O1 (stereo not shown) [Example 2, 2-amino-5-(N-butyl-N-methylaminomethyl)-2-oxazoline]
- mortality [1, 15]: 0%
- mortality [1, 13]: 100%
- mortality ([1]; po, orally 300 mg/kg): 0%
- intrinsic chronotropic effect [2]: without exhibiting intrinsic chronotropic effect
- inhibition at 100 µg/mL [2, 14]: > 50%

Structure (SMILES): C=CCN1CCN(CC2CN=C(N)O2)CC1 (stereo not shown) [Example 14]
- mortality [1, 13]: 0%
- mortality ([1]; po, orally 300 mg/kg): 0%
- inhibition at 50 µg/mL ([2]; Cavia porcellus, 50 microg/ml, 5 microg/ml of histamine): > 50%
- reduction of the systolic pressure ([4]; after six hours): 21%

Structure (SMILES): NC1=NCC(CN2CCCC2)O1 (stereo not shown) [Example 3, 2-amino-5-pyrrolidinomethyl-2-oxazoline]
- mortality [1, 15]: 0%
- mortality [1, 13]: 100%
- mortality ([1]; po, orally 300 mg/kg): 0%
- inhibition of the Evans blue spot ([5]; 10 mg/kg): 53%
- sodium excretion multiplied by (ratio treated to control animals) [6]: 4.2

Structure (SMILES): NC1=NCC(CN2CCN(c3ccccc3)CC2)O1 (stereo not shown) [Example 11]
- inhibition of carrageenan edema [7]: 35%
- ulcerigenic effect [8]: very slightly ulcerigenic
- inhibition at 25 µg/mL ([9]; 25 microg/ml): > 80%
- inhibition at 25 µg/mL [10]: 80%
- inhibition of the stress ulcer [11]: 88%

Structure (SMILES): NC1=NCC(CN2CCCCC2)O1 (stereo not shown) [Example 4, 2-amino-5-piperidinomethyl-2-oxazoline]
- mortality [1, 15]: 0%
- mortality [1, 13]: 100%
- mortality ([1]; po, orally 200 mg/kg): 0%
- mortality ([1]; po, orally 300 mg/kg): 33%
- inhibition of the Evans blue spot ([5]; 10 mg/kg): 60%

Structure (SMILES): NC1=NCC(CN2CCOCC2)O1 (stereo not shown) [Example 7, 2-amino-5-morpholinomethyl-2-oxazoline]
- mortality ([1]; po, orally 300 mg/kg): 100%
- sodium excretion multiplied by (ratio treated to control animals) [6]: 4.9

Structure (SMILES): CC1CCN(CC2CN=C(N)O2)CC1 (stereo not shown) [Example 5, 2-amino-5-(4-methylpiperidinomethyl)-2-oxazoline]
- mortality [1, 15]: 0%
- mortality [1, 13]: 100%
- mortality ([1]; po, orally 300 mg/kg): 0%

Structure (SMILES): CCN(CC)CC1CN=C(N)O1 (stereo not shown) [Example 1, 2-amino-N,N-5-diethylaminomethyl-2-oxazoline]
- mortality [1, 13]: 0%
- mortality ([1]; po, orally 300 mg/kg): 0%
- intrinsic chronotropic effect [2]: without exhibiting intrinsic chronotropic effect
- inhibition at 100 µg/mL [2, 14]: > 50%
- activation at 100 µg/mL [12]: 100%
- inhibition of the Evans blue spot ([5]; 100 mg/kg per os): 60%

Structure (SMILES): NC1=NCC(CN2CCN(Cc3ccccc3)CC2)O1 (stereo not shown) [Example 13]
- mortality [1, 15]: 0%
- mortality [1, 13]: 100%
- mortality ([1]; po, orally 300 mg/kg): 0%
- inhibition at 100 µg/mL [2, 14]: > 50%
- inhibition at 100 µg/mL ([9]; 100 microg/ml): > 80%
- drop in systolic pressure ([4]; after four hours): 15%
- drop in systolic pressure ([4]; after two hours): 14%

Structure (SMILES): NC1=NCC(CN2CCC(Cc3ccccc3)CC2)O1 (stereo not shown) [Example 12]
- mortality [1, 15]: 0%
- mortality [1, 13]: 100%
- mortality ([1]; po, orally 100 mg/kg (footnote 1)): 0%
- mortality ([1]; po, orally 300 mg/kg): 100%
